What was measured:
[1] = test system: TK6 cells; test: Cytotoxicity in the TK6 assay (CE, RS, RSG, RTG); details: for RS: graph sheet, TK6, 24 h
Description: Briefly, test substances were dissolved in an appropriate solvent (DMSO or ethanol) and then serially diluted to prepare final concentrations. […] The 4 h and 24 h treatments were conducted by shaking and static exposures, respectively. After treatment with test substances, cells were centrifuged (1000 rpm, 5 min), supernatants were removed, and cells were washed with a serum-free medium or Hank’s Balanced Salt Solution. After centrifugation (1000 rpm, 5 min) to remove the supernatant, cells (2 × 10^7 cells) were dispersed in an RPMI medium containing 10% serum, and cell concentration was measured. Treated cells were cultured at 37 °C with 5% CO2 condition and used for TK6 assays. At that time, to calculate the cloning efficiency (CE) (Eq. 1), the cells were cultured in a 96-well microplate at a concentration of about 1.6 cells/well for 2 weeks.
CE, the cell colony formation rate, was calculated using Eq. 1 according to the Poisson distribution equation. EW was the number of wells without colonies, and TW was the total number of wells. N was the average number of cells per well (N = 1.6). 1 CE=−lnEW/TW/N
Additionally, CE was adjusted by the following calculation (Eq. 2) due to cell loss when exposure caused cytotoxicity. “The number of cells at the end of the treatment” was the number of cells obtained after centrifugation at the end of the treatment in the above-described exposure treatment of the test substance. The “cell number at the start of treatment” was 2 × 10^7. 2 AdjustedCE=CE×number of cellsatendof treatment/number of cellsatthe start of treatment
CE0 seeding, in which cells were seeded immediately after treatment, and CE3 seeding, in which cells were seeded 3 days after treatment, to examine cell viability in the TK6 assay described below. The relative cell viability RS0 (%) just after the treatment with the test substance was calculated from CE0, following Eq. 3. The survival rate of the negative control group was defined as 100%. 3 RS0%=adjusted CE0 of treatment culture/adjusted CE0 of solvent control×100
The TK6 assay is conducted between 20 and 10% RS0 as a maximum dose if cytotoxicity is observed. […] When the main TK6 assay was difficult to conduct under the condition of RS0 values from 20 to 10%, the test was conducted between 20 and 10% relative total growth (RTG), described later, as a maximum dose.
Besides RS0, relative suspension growth (RSG) and RTG as other cytotoxicity indices (Eq. 4) were used. When cells were cultured for 3 days after treatment with the test substance, suspension cell growth ratio 1 (SG1) was the growth ratio from day 0 to day 1 (cell concentration on day 1/cell concentration on day 0). The suspension cell growth ratio 2 (SG2) was the growth ratio from day 1 to day 2 (cell concentration on day 2/cell concentration on day 1). The RSG value was calculated by dividing the total SG value of the untreated group for 3 days by the total SG value of the treated group for the same 3 days (Eq. 4).
On the third day of culture, CE3 plates for determining plating efficiency and mutant frequency (MF) plates for mutation detection were prepared. CE3 plates were seeded in 96-well microplates at a concentration of about 1.6 cells/well.

[2] = test system: human lymphoblastoid TK6 cells, thymidine kinase gene; test: TK gene mutation assay (TK6 assay, OECD TG490); details: for MF: graph sheet, TK6, 24 h
[3] = TK6, 24 h treatment, -S9 mix, dose 60.00 μg/mL
[4] = TK6, 24 h treatment, -S9 mix, dose 90.00 μg/mL
[5] = TK6, 24 h treatment, -S9 mix, dose 200.0 μg/mL
[6] = TK6, 24 h treatment, -S9 mix, dose 220.0 μg/mL
[7] = short treatment, +S9 mix, Day 0, dose 62.5 μg/mL
[8] = short treatment, +S9 mix, Day 0, dose 250 μg/mL
[9] = short treatment, +S9 mix, Day 0, dose 500 μg/mL
[10] = short treatment, +S9 mix, Day 0, dose 1000 μg/mL
[11] = short treatment, +S9 mix, Day 0, dose 2000 μg/mL
[12] = short treatment, +S9 mix, dose 62.5 μg/mL
[13] = short treatment, +S9 mix, dose 250 μg/mL
[14] = short treatment, +S9 mix, dose 500 μg/mL
[15] = short treatment, +S9 mix, dose 1000 μg/mL
[16] = short treatment, +S9 mix, dose 2000 μg/mL
[17] = short treatment, -S9 mix, Day 0, dose 62.50 μg/mL
[18] = short treatment, -S9 mix, Day 0, dose 500.0 μg/mL
[19] = short treatment, -S9 mix, Day 0, dose 1000.0 μg/mL
[20] = short treatment, -S9 mix, Day 0, dose 2000.0 μg/mL
[21] = short treatment, -S9 mix, dose 62.50 μg/mL
[22] = short treatment, -S9 mix, dose 500.0 μg/mL
[23] = short treatment, -S9 mix, dose 1000.0 μg/mL
[24] = short treatment, -S9 mix, dose 2000.0 μg/mL

Compound: O=[N+]([O-])c1cc(N(CCO)CCO)ccc1NCCO [HC blue no2]
- Adjusted CE0 [1, 3]: 341.6%
- CE0 (cell viability on Day 0) [1, 3]: 112.0%
- CE3 (cell viability on Day 3) [1, 3]: 116.0%
- RS0 [1, 3]: 128.6%
- RSG [1, 3]: 0.865
- Adjusted CE0 [1, 4]: 259.2%
- CE0 (cell viability on Day 0) [1, 4]: 81.6%
- CE3 (cell viability on Day 3) [1, 4]: 125.0%
- RS0 [1, 4]: 97.6%
- RSG [1, 4]: 0.765
- Adjusted CE0 [1, 5]: 96.6%
- CE0 (cell viability on Day 0) [1, 5]: 50.2%
- CE3 (cell viability on Day 3) [1, 5]: 112.0%
- RS0 [1, 5]: 36.4%
- RSG [1, 5]: 0.241
- Adjusted CE0 [1, 6]: 48.2%
- CE0 (cell viability on Day 0) [1, 6]: 28.3%
- CE3 (cell viability on Day 3) [1, 6]: 101.2%
- RS0 [1, 6]: 18.1%
- RSG [1, 6]: 0.106
- CE3 ([1]; as fraction, mutation frequency table, TK6, 24 h treatment, -S9 mix, dose 60.00 μg/mL): 1.160
- CE3 ([1]; as fraction, mutation frequency table, TK6, 24 h treatment, -S9 mix, dose 90.00 μg/mL): 1.250
- CE3 ([1]; as fraction, mutation frequency table, TK6, 24 h treatment, -S9 mix, dose 200.0 μg/mL): 1.120
- CE3 ([1]; as fraction, mutation frequency table, TK6, 24 h treatment, -S9 mix, dose 220.0 μg/mL): 1.012
- RS ([1]; -S9 mix, dose 60.00 μg/mL): 128.6
- RS ([1]; -S9 mix, dose 90.00 μg/mL): 97.6
- RS ([1]; -S9 mix, dose 200.0 μg/mL): 36.4
- RS ([1]; -S9 mix, dose 220.0 μg/mL): 18.1
- Adjusted CE0 [1, 7]: 91.4%
- CE0 [1, 7]: 81.6%
- RS0 [1, 7]: 96.7%
- Adjusted CE0 [1, 8]: 89.0%
- CE0 [1, 8]: 74.8%
- RS0 [1, 8]: 94.2%
- Adjusted CE0 [1, 9]: 80.9%
- CE0 [1, 9]: 79.3%
- RS0 [1, 9]: 85.5%
- Adjusted CE0 [1, 10]: 69.1%
- CE0 [1, 10]: 59.6%
- RS0 [1, 10]: 73.1%
- Adjusted CE0 [1, 11]: 58.5%
- CE0 [1, 11]: 54.7%
- RS0 [1, 11]: 61.9%
- CE3 ([1]; short treatment, +S9 mix, Day 3, dose 62.5 μg/mL): 92.1%
- CE3 ([1]; short treatment, +S9 mix, Day 3, dose 250 μg/mL): 104.6%
- CE3 ([1]; short treatment, +S9 mix, Day 3, dose 500 μg/mL): 92.1%
- CE3 ([1]; short treatment, +S9 mix, Day 3, dose 1000 μg/mL): 108.2%
- CE3 ([1]; short treatment, +S9 mix, Day 3, dose 2000 μg/mL): 104.6%
- CE3 ([1]; short treatment, +S9 mix, as fraction, dose 62.5 μg/mL): 0.921
- CE3 ([1]; short treatment, +S9 mix, as fraction, dose 250 μg/mL): 1.046
- CE3 ([1]; short treatment, +S9 mix, as fraction, dose 500 μg/mL): 0.921
- CE3 ([1]; short treatment, +S9 mix, as fraction, dose 1000 μg/mL): 1.082
- CE3 ([1]; short treatment, +S9 mix, as fraction, dose 2000 μg/mL): 1.046
- RSG [1, 12]: 1.016
- RSG [1, 13]: 1.004
- RSG [1, 14]: 1.149
- RSG [1, 15]: 0.770
- RSG [1, 16]: 0.963
- Adjusted CE0 [1, 17]: 82.4%
- CE0 [1, 17]: 77.0%
- RS0 [1, 17]: 94.7%
- Adjusted CE0 [1, 18]: 97.6%
- CE0 [1, 18]: 92.1%
- RS0 [1, 18]: 112.2%
- Adjusted CE0 [1, 19]: 99.4%
- CE0 [1, 19]: 92.1%
- RS0 [1, 19]: 114.3%
- Adjusted CE0 [1, 20]: 93.9%
- CE0 [1, 20]: 92.1%
- RS0 [1, 20]: 107.9%
- CE3 ([1]; short treatment, -S9 mix, Day 3, dose 62.50 μg/mL): 125.0%
- CE3 ([1]; short treatment, -S9 mix, Day 3, dose 500.0 μg/mL): 95.0%
- CE3 ([1]; short treatment, -S9 mix, Day 3, dose 1000.0 μg/mL): 108.2%
- CE3 ([1]; short treatment, -S9 mix, Day 3, dose 2000.0 μg/mL): 89.3%
- CE3 ([1]; short treatment, -S9 mix, as fraction, dose 62.50 μg/mL): 1.250
- CE3 ([1]; short treatment, -S9 mix, as fraction, dose 500.0 μg/mL): 0.950
- CE3 ([1]; short treatment, -S9 mix, as fraction, dose 1000.0 μg/mL): 1.082
- CE3 ([1]; short treatment, -S9 mix, as fraction, dose 2000.0 μg/mL): 0.893
- RSG [1, 21]: 0.906
- RSG [1, 22]: 1.168
- RSG [1, 23]: 0.743
- RSG [1, 24]: 0.681
- %SG [2, 3]: 47.5%
- Mut. freq. N-MF [2, 3]: 1.5 ×10-6
- Mut. freq. S-MF [2, 3]: 1.4 ×10-6
- Mut. freq. T-MF [2, 3]: 2.9 ×10-6
- %SG [2, 4]: 74.7%
- Mut. freq. N-MF [2, 4]: 0.528 ×10-6
- Mut. freq. S-MF [2, 4]: 1.6 ×10-6
- Mut. freq. T-MF [2, 4]: 2.1 ×10-6
- %SG [2, 5]: 48.2%
- Mut. freq. N-MF [2, 5]: 3.7 ×10-6
- Mut. freq. S-MF [2, 5]: 3.4 ×10-6
- Mut. freq. T-MF [2, 5]: 7.1 ×10-6
- %SG [2, 6]: 52.5%
- Mut. freq. N-MF [2, 6]: 5.1 ×10-6
- Mut. freq. S-MF [2, 6]: 5.7 ×10-6
- Mut. freq. T-MF [2, 6]: 10.8 ×10-6
- MF ([2]; -S9 mix, dose 60.00 μg/mL): 2.9
- MF ([2]; -S9 mix, dose 90.00 μg/mL): 2.1
- MF ([2]; -S9 mix, dose 200.0 μg/mL): 7.1
- MF ([2]; -S9 mix, dose 220.0 μg/mL): 10.8
- %SG [2, 12]: 50.7%
- Mut. freq. N-MF [2, 12]: 0.7 ×10-6
- Mut. freq. S-MF [2, 12]: 0.7 ×10-6
- Mut. freq. T-MF [2, 12]: 1.5 ×10-6
- %SG [2, 13]: 22.9%
- Mut. freq. N-MF [2, 13]: 2.4 ×10-6
- Mut. freq. S-MF [2, 13]: 0.7 ×10-6
- Mut. freq. T-MF [2, 13]: 3.0 ×10-6
- %SG [2, 14]: 42.4%
- Mut. freq. N-MF [2, 14]: 1.9 ×10-6
- Mut. freq. S-MF [2, 14]: 1.4 ×10-6
- Mut. freq. T-MF [2, 14]: 3.3 ×10-6
- %SG [2, 15]: 28.4%
- Mut. freq. N-MF [2, 15]: 2.8 ×10-6
- Mut. freq. S-MF [2, 15]: 1.1 ×10-6
- Mut. freq. T-MF [2, 15]: 3.9 ×10-6
- %SG [2, 16]: 48.7%
- Mut. freq. N-MF [2, 16]: 1.3 ×10-6
- Mut. freq. S-MF [2, 16]: 1.2 ×10-6
- Mut. freq. T-MF [2, 16]: 2.5 ×10-6
- %SG [2, 21]: 23.1%
- Mut. freq. N-MF [2, 21]: 1.5 ×10-6
- Mut. freq. S-MF [2, 21]: 0.455 ×10-6
- Mut. freq. T-MF [2, 21]: 2.0 ×10-6
- %SG [2, 22]: 55.5%
- Mut. freq. N-MF [2, 22]: 1.8 ×10-6
- Mut. freq. S-MF [2, 22]: 2.3 ×10-6
- Mut. freq. T-MF [2, 22]: 4.1 ×10-6
- %SG [2, 23]: 26.3%
- Mut. freq. N-MF [2, 23]: 2.3 ×10-6
- Mut. freq. S-MF [2, 23]: 0.8 ×10-6
- Mut. freq. T-MF [2, 23]: 3.1 ×10-6
- %SG [2, 24]: 51.7%
- Mut. freq. N-MF [2, 24]: 1.8 ×10-6
- Mut. freq. S-MF [2, 24]: 1.9 ×10-6
- Mut. freq. T-MF [2, 24]: 3.7 ×10-6
